Converted amounts (≈) assume the structure as drawn.

For one test, the system named is Staphylococcus epidermidis. The experiment in a line: In vitro antibacterial activity against Staphylococcus epidermis (S.e.2) C2235. The format is functional.
The compound `CC(=O)NC[C@H]1CN(c2ccc(N3CCN(C(=O)c4cc(COC(N)=O)no4)CC3)c(F)c2)C(=O)O1` came in with an MIC of 0.5 µg/mL (≈ 0.991 µM).

`CC(=O)NC[C@H]1CN(c2ccc(N3CCN(C(=O)c4cc(C)no4)CC3)c(F)c2)C(=O)O1` gave an MIC of 1 µg/mL (≈ 2.24 µM).

In turn, `CC(=O)NC[C@H]1CN(c2ccc(N3CCN(C(=O)c4cc(C(F)(F)F)no4)CC3)c(F)c2)C(=O)O1` displayed an MIC of 2 µg/mL (≈ 4 µM).

Compound `CC(=O)NC[C@H]1CN(c2ccc(N3CCN(Cc4cc(-c5ccc(Oc6ccccc6)cc5)no4)CC3)c(F)c2)C(=O)O1` showed an MIC of 4 µg/mL (≈ 6.83 µM). This MIC lies about 2-fold higher than the previous one.

Another test deals with Enterococcus faecalis. Kind of test: In vitro antibacterial activity against Enterococcus faecalis C6291 (E.f.1). The format is functional.
As to `CC(=O)NC[C@H]1CN(c2ccc(N3CCN(C(=O)c4cc(COC(N)=O)no4)CC3)c(F)c2)C(=O)O1`, the MIC was determined as 1 µg/mL (≈ 1.98 µM).

`CC(=O)NC[C@H]1CN(c2ccc(N3CCN(C(=O)c4cc(C)no4)CC3)c(F)c2)C(=O)O1` had an MIC of 4 µg/mL (≈ 8.98 µM).

Turning to `CC(=O)NC[C@H]1CN(c2ccc(N3CCN(C(=O)c4cc(C(F)(F)F)no4)CC3)c(F)c2)C(=O)O1`, the lowest concentration to inhibit growth (MIC) was 4 µg/mL (≈ 8.01 µM).

`CC(=O)NC[C@H]1CN(c2ccc(N3CCN(Cc4cc(-c5ccc(Oc6ccccc6)cc5)no4)CC3)c(F)c2)C(=O)O1` returned an MIC of 4 µg/mL (≈ 6.83 µM).

The next test concerns Staphylococcus epidermidis. Kind of test: In vitro antibacterial activity against Staphylococcus epidermis (S.e.1) […]. The format is functional.
Consider `CC(=O)NC[C@H]1CN(c2ccc(N3CCN(C(=O)c4cc(COC(N)=O)no4)CC3)c(F)c2)C(=O)O1`, for which 0.5 µg/mL (≈ 0.991 µM) was the least that counted as inhibitory (MIC).

Compound `CC(=O)NC[C@H]1CN(c2ccc(N3CCN(C(=O)c4cc(C)no4)CC3)c(F)c2)C(=O)O1` came in with an MIC of 0.5 µg/mL (≈ 1.12 µM).

For the compound `CC(=O)NC[C@H]1CN(c2ccc(N3CCN(C(=O)c4cc(C(F)(F)F)no4)CC3)c(F)c2)C(=O)O1`, inhibition of growth (MIC) required 2 µg/mL (≈ 4 µM). This MIC lies about 4-fold higher than the previous one.

Compound `CC(=O)NC[C@H]1CN(c2ccc(N3CCN(Cc4cc(-c5ccc(Oc6ccccc6)cc5)no4)CC3)c(F)c2)C(=O)O1` came in with an MIC of 2 µg/mL (≈ 3.42 µM).

In the next test the test system is Streptococcus pyogenes. Kind of test: In vitro antibacterial activity against Streptococcus pyogenes C6003 (S.p.2). Format: functional.
As for `CC(=O)NC[C@H]1CN(c2ccc(N3CCN(C(=O)c4cc(COC(N)=O)no4)CC3)c(F)c2)C(=O)O1`, the MIC turned out to be 0.5 µg/mL (≈ 0.991 µM).

On to `CC(=O)NC[C@H]1CN(c2ccc(N3CCN(C(=O)c4cc(C)no4)CC3)c(F)c2)C(=O)O1`, for which 0.5 µg/mL (≈ 1.12 µM) was the least that counted as inhibitory (MIC).

The compound `CC(=O)NC[C@H]1CN(c2ccc(N3CCN(C(=O)c4cc(C(F)(F)F)no4)CC3)c(F)c2)C(=O)O1` gave an MIC of 1 µg/mL (≈ 2 µM).

Compound `CC(=O)NC[C@H]1CN(c2ccc(N3CCN(Cc4cc(-c5ccc(Oc6ccccc6)cc5)no4)CC3)c(F)c2)C(=O)O1` gave an MIC of 1 µg/mL (≈ 1.71 µM).

In the next test the test system is Staphylococcus aureus. Kind of test: In vitro antibacterial activity against Staphylococcus aureus (S. a.) ATCC 29213. Format: functional.
`CC(=O)NC[C@H]1CN(c2ccc(N3CCN(C(=O)c4cc(COC(N)=O)no4)CC3)c(F)c2)C(=O)O1` displayed an MIC of 2 µg/mL (≈ 3.96 µM).

Consider `CC(=O)NC[C@H]1CN(c2ccc(N3CCN(C(=O)c4cc(C)no4)CC3)c(F)c2)C(=O)O1`, for which the MIC stood at 4 µg/mL (≈ 8.98 µM).

As for `CC(=O)NC[C@H]1CN(c2ccc(N3CCN(C(=O)c4cc(C(F)(F)F)no4)CC3)c(F)c2)C(=O)O1`, the lowest concentration to inhibit growth (MIC) was 4 µg/mL (≈ 8.01 µM).

The compound `CC(=O)NC[C@H]1CN(c2ccc(N3CCN(Cc4cc(-c5ccc(Oc6ccccc6)cc5)no4)CC3)c(F)c2)C(=O)O1` came in with an MIC of 8 µg/mL (≈ 13.7 µM).

The subject of a further test is Enterococcus faecium. The experiment in a line: In vitro antibacterial activity against Enterococcus faecium C6301 (E.f.2). The format is functional.
Consider `CC(=O)NC[C@H]1CN(c2ccc(N3CCN(C(=O)c4cc(COC(N)=O)no4)CC3)c(F)c2)C(=O)O1`, for which the MIC was found to be 1 µg/mL (≈ 1.98 µM).

With `CC(=O)NC[C@H]1CN(c2ccc(N3CCN(C(=O)c4cc(C)no4)CC3)c(F)c2)C(=O)O1`, the MIC is 2 µg/mL (≈ 4.49 µM).

For `CC(=O)NC[C@H]1CN(c2ccc(N3CCN(C(=O)c4cc(C(F)(F)F)no4)CC3)c(F)c2)C(=O)O1`, the lowest concentration to inhibit growth (MIC) was 4 µg/mL (≈ 8.01 µM).

Compound `CC(=O)NC[C@H]1CN(c2ccc(N3CCN(Cc4cc(-c5ccc(Oc6ccccc6)cc5)no4)CC3)c(F)c2)C(=O)O1` registered an MIC of 4 µg/mL (≈ 6.83 µM).

A further test relates to Enterococcus faecium. Kind of test: In vitro antibacterial activity against vancomycin-resistant Enterococcus faecium C6487 (VRE). Format: functional.
Take `CC(=O)NC[C@H]1CN(c2ccc(N3CCN(C(=O)c4cc(COC(N)=O)no4)CC3)c(F)c2)C(=O)O1`: the MIC was 1 µg/mL (≈ 1.98 µM).

On to `CC(=O)NC[C@H]1CN(c2ccc(N3CCN(C(=O)c4cc(C)no4)CC3)c(F)c2)C(=O)O1`, for which the MIC came out at 2 µg/mL (≈ 4.49 µM).

For the compound `CC(=O)NC[C@H]1CN(c2ccc(N3CCN(C(=O)c4cc(C(F)(F)F)no4)CC3)c(F)c2)C(=O)O1`, the MIC was found to be 4 µg/mL (≈ 8.01 µM).

As to `CC(=O)NC[C@H]1CN(c2ccc(N3CCN(Cc4cc(-c5ccc(Oc6ccccc6)cc5)no4)CC3)c(F)c2)C(=O)O1`, the lowest concentration to inhibit growth (MIC) was 4 µg/mL (≈ 6.83 µM).

Another test deals with Staphylococcus aureus. Kind of test: In vitro antibacterial activity against methicillin-resistant Staphylococcus aureus (MRSA) C6068. The format is functional.
`CC(=O)NC[C@H]1CN(c2ccc(N3CCN(C(=O)c4cc(COC(N)=O)no4)CC3)c(F)c2)C(=O)O1` yielded an MIC of 1 µg/mL (≈ 1.98 µM).

In the case of `CC(=O)NC[C@H]1CN(c2ccc(N3CCN(C(=O)c4cc(C)no4)CC3)c(F)c2)C(=O)O1`, the MIC was 2 µg/mL (≈ 4.49 µM).

For the compound `CC(=O)NC[C@H]1CN(c2ccc(N3CCN(C(=O)c4cc(C(F)(F)F)no4)CC3)c(F)c2)C(=O)O1`, the lowest concentration to inhibit growth (MIC) was 2 µg/mL (≈ 4 µM).

As for `CC(=O)NC[C@H]1CN(c2ccc(N3CCN(Cc4cc(-c5ccc(Oc6ccccc6)cc5)no4)CC3)c(F)c2)C(=O)O1`, the minimum inhibitory concentration (MIC) was found to be 4 µg/mL (≈ 6.83 µM).

A further test has as its system Streptococcus pyogenes. Kind of test: In vitro antibacterial activity against Streptococcus pyogenes ATCC 8668 (S.p.1). The format is functional.
As for `CC(=O)NC[C@H]1CN(c2ccc(N3CCN(C(=O)c4cc(COC(N)=O)no4)CC3)c(F)c2)C(=O)O1`, the MIC is 0.5 µg/mL (≈ 0.991 µM).

In turn, `CC(=O)NC[C@H]1CN(c2ccc(N3CCN(C(=O)c4cc(C)no4)CC3)c(F)c2)C(=O)O1` came in with an MIC of 0.5 µg/mL (≈ 1.12 µM).

For the compound `CC(=O)NC[C@H]1CN(c2ccc(N3CCN(C(=O)c4cc(C(F)(F)F)no4)CC3)c(F)c2)C(=O)O1`, 1 µg/mL (≈ 2 µM) was the least that counted as inhibitory (MIC).

Take `CC(=O)NC[C@H]1CN(c2ccc(N3CCN(Cc4cc(-c5ccc(Oc6ccccc6)cc5)no4)CC3)c(F)c2)C(=O)O1`: the MIC is 1 µg/mL (≈ 1.71 µM).

The next test relates to Staphylococcus aureus. Kind of test: In vitro antibacterial activity against methicillin-susceptible Staphylococcus aureus (MSSA) C2214. The format is functional.
For the compound `CC(=O)NC[C@H]1CN(c2ccc(N3CCN(C(=O)c4cc(COC(N)=O)no4)CC3)c(F)c2)C(=O)O1`, the lowest concentration to inhibit growth (MIC) was 2 µg/mL (≈ 3.96 µM).

With `CC(=O)NC[C@H]1CN(c2ccc(N3CCN(C(=O)c4cc(C)no4)CC3)c(F)c2)C(=O)O1`, 8 µg/mL (≈ 18 µM) was the least that counted as inhibitory (MIC).

Compound `CC(=O)NC[C@H]1CN(c2ccc(N3CCN(C(=O)c4cc(C(F)(F)F)no4)CC3)c(F)c2)C(=O)O1` had an MIC of 4 µg/mL (≈ 8.01 µM).

As for `CC(=O)NC[C@H]1CN(c2ccc(N3CCN(Cc4cc(-c5ccc(Oc6ccccc6)cc5)no4)CC3)c(F)c2)C(=O)O1`, 8 µg/mL (≈ 13.7 µM) was the least that counted as inhibitory (MIC).

Another test relates to Staphylococcus aureus. The experiment in a line: In vitro antibacterial activity against ciprofloxacin-resistant Staphylococcus aureus (CRSA) C6043. Format: functional.
For the compound `CC(=O)NC[C@H]1CN(c2ccc(N3CCN(C(=O)c4cc(COC(N)=O)no4)CC3)c(F)c2)C(=O)O1`, the MIC was determined as 2 µg/mL (≈ 3.96 µM).

For `CC(=O)NC[C@H]1CN(c2ccc(N3CCN(C(=O)c4cc(C)no4)CC3)c(F)c2)C(=O)O1`, the MIC was found to be 4 µg/mL (≈ 8.98 µM). Compared with the last compound, the MIC is about 2-fold higher.

On to `CC(=O)NC[C@H]1CN(c2ccc(N3CCN(C(=O)c4cc(C(F)(F)F)no4)CC3)c(F)c2)C(=O)O1`, for which the MIC turned out to be 4 µg/mL (≈ 8.01 µM).

In turn, `CC(=O)NC[C@H]1CN(c2ccc(N3CCN(Cc4cc(-c5ccc(Oc6ccccc6)cc5)no4)CC3)c(F)c2)C(=O)O1` registered an MIC of 8 µg/mL (≈ 13.7 µM). This MIC lies about 2-fold higher than the previous one.

(Values after ChEMBL document CHEMBL1131977, “Synthesis and in vitro activity of new oxazolidinone antibacterial agents having substituted isoxazoles” (1999).)
